Measured values from patent publication US8604087B2, “Composition for treating or preventing amyloid-related diseases comprising 4-O-methylhonokiol” (priority 2008, dated 2013).

Assays:
[1] = test system: scopolamine-induced impairment of memory of mice; test: Passive avoidance test for evaluating explicit memory; assay type: in vivo; conditions: for Improvement: step-through latency
Experimental: In order to test the effect of 4-O-methylhonokiol on the scopolamine-induced impairment of memory of mice, experiment was performed as follows based on the passive avoidance test animal model described in the literature [Korea Health Research Association, Guidelines for the Testing of Functional Health Foods, 663-701, 2004; Rho et al., Biol. Pharm. Bull., 2005].
A passive avoidance instrument consisting of two chambers separated by a guillotine door was used as the experimental apparatus. One chamber was an illuminated chamber made of transparent acryl boards (30×30×30 cm) and the other was a dark chamber made of black acryl boards (same dimensions). The floor of the dark chamber was equipped with a grid made of aluminum pieces separated by a regular spacing. The grid was connected to an apparatus for delivering electric shocks to the feet of the test animal. A mouse was put into the illuminated chamber and the guillotine door was opened so that the mouse could enter the dark chamber. The acquisition trials were repeated 3 times. On the third run, immediately after the mouse entered the dark chamber, an electric shock was delivered through the aluminum grid (0.1 mA, 5 seconds). Memory test was performed 24 hours after the acquisition trials. The mouse was put into the illuminated chamber, the guillotine door was opened, and the time taken for the mouse to enter the dark chamber was measured (step-through latency). A longer time means better learning ability and memory. 10 mice were tested for each group.

[2] = test system: scopolamine-induced impairment of learning ability of mice; test: Water maze test for evaluating spatial learning ability; assay type: in vivo, male ICR mice; conditions: for Improvement: escape distance
Experimental: In order to test the effect of 4-O-methylhonokiol on the scopolamine-induced impairment of learning ability of mice, experiment was performed as follows based on the water maze test animal model described in the literature [Korea Health Research Association, Guidelines for the Testing of Functional Health Foods, 663-701, 2004; Widy-Tyszkiewicz et al., Biol. Pharm. Bull., 2002]. 5-6 weeks old male ICR mice (20-28 g; Dae Han Biolink, Korea) were raised under controlled lighting (12-hour light-dark cycle) and temperature (22±2° C.) conditions. They were grouped (n=10) and given free access to food and water, in a cage. The mice were accustomed for a week before performing the test.
A round pool 180 cm in diameter and 50 cm in height was filled with water (22±3° C.) to 30 cm in depth. A transparent acryl resin platform (diameter 12 cm) was placed 1.5 cm below the surface of the water. The mice were trained for 6 days, 180 seconds a day (acquisition test). On day 7, retention test was carried out. The mice were forced to swim for 60 seconds by removing the platform. All the behaviors of the mice were recorded using a video camera. Time and distance were measured until the mice climbed onto the platform.
4-O-methylhonokiol (0.5, 1 and 1.5 mg/kg) was dissolved in drinking water and orally administered to the mice, for a week. The comparison group was treated with scopolamine only, and the control group was not treated with any substance.

Amyloid-β 1-42 = test: Inhibition of amyloid-β 1-42 production in mouse brain cortex and hippocampus (amyloid beta 1-42 assay kit); assay type: in vivo; conditions: for Improvement: production amount
Experimental: (§1) After the behavioral pharmacological experiments, the brain cortex and hippocampus were separated from the brain of the mouse, homogenized with RO-PREP protein extraction solution, and centrifuged at 4° C., at 15,000 rpm, for 2 hours. The protein quantity of the supernatant was analyzed with a Bio-Rad protein analysis kit (Bio-Rad). Amyloid-β 1-42 were quantitated using an amyloid beta 1-42 assay kit (Immuno-Biological, Japan).
The protein extract (100 μL) obtained from the brain cortex or hippocampus was put in a coated 96-well plate and incubated at 4° C. overnight. After washing with washing buffer and adding labeled antibody solution, the mixture was incubated at 4° C. for 1 hour in the dark. After washing again and adding chromogen, the mixture was incubated at room temperature for 30 minutes in the dark. Then, after adding stop solution, absorbance was measured at 450 nm. Measurement was made 3 times.

Acetylcholinesterase [3] = target: T1, Acetylcholinesterase (Mus musculus, UniProt P21836); test: Acetylcholinesterase activity in mouse brain cortex and hippocampus after the behavioral experiments (modified Ellman's method); assay type: in vivo; set-up: Enzyme activity: unit not given beside the values; conditions: for Improvement: enzyme activity
T1 construct: the brain cortex and hippocampus were separated from the brain of the mouse, homogenized with RO-PREP protein extraction solution; from tissue; host or cells: mouse brain cortex and hippocampus
T1 sequence (P21836 32-614): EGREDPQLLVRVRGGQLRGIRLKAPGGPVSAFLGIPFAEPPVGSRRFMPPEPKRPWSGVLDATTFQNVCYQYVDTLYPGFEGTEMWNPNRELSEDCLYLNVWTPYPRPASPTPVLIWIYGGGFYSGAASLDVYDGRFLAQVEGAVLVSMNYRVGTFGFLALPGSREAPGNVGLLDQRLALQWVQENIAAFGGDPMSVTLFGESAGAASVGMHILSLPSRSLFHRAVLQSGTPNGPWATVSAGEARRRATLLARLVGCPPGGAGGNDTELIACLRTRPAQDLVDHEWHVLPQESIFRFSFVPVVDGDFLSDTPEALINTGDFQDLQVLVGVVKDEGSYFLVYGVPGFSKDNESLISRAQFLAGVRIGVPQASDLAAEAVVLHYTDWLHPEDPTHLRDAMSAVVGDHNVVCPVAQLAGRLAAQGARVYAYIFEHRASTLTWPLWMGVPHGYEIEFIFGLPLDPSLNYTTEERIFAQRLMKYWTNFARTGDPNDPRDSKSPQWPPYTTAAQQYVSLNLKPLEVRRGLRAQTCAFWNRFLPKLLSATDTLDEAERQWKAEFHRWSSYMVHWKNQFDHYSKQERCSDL
Experimental: as §1, with “solution (iNtRON Biotechnology),” for “solution,”, “Acetylcholinesterase activity was analyzed by the modified Ellman's method.” for “Amyloid-β 1-42 were quantitated using an amyloid beta 1-42 assay kit (Immuno-Biological, Japan).”
Cell lysate was put in a 96-well plate, 10 μL per well. After adding reaction buffer [190 μL, 0.01% DTNB, 0.02% acetylthiocholine and 0.1 mM isoOMPA in 50 mM Tris-HCl (pH 8.0, 0.1 M NaCl, 20 mM MgCl2)], measurement was made at 37° C., at 405 nm, for 5 minutes. After 10 minutes of reaction, measurement was made again at the same wavelength. After adding different concentrations of acetylcholinesterase and treating with standard buffer [0.01% DTNB and 0.02% 0.1 mM isoOMPA in 50 mM Tris-HCl (pH 8.0, 0.1 M NaCl, 20 mM MgCl2)], measurement was made at 37° C., at 405 nm, for 5 minutes. Activity was calculated from the difference of absorbance at the first and second measurements.

acetylcholinesterase [4] = target: acetylcholinesterase (Homo sapiens, UniProt P22303); test: Inhibition of acetylcholinesterase activity by honokiol and 4-O-methylhonokiol (modified Ellman's method); assay type: biochemical; conditions: for IC50: 5 minutes of reaction at 25° C., pH 8.0; for inhibition at 0.01 µM: concentration 10 nM; for inhibition at 0.1 µM: concentration 100 nM
Experimental: Acetylcholinesterase activity was analyzed by the modified Ellman's method [Ellman G. L., et al., Biochem. Pharmacol. 7, 88-95, 1961]. After adding 50 mM phosphate buffer (30 μL, pH 8.0) to a 96-well plate, different concentrations of 4-O-methylhonokiol or honokiol was added, 10 μL per well, and acetylcholinesterase was added, 10 μL per well. Then, 50 mM phosphate buffer (50 μL, pH 8.0) containing 0.5 mM acetylthiocholine iodide and 1 mM 5,5′-dithiobis(2-nitrobenzoic acid) was added as a substrate for the enzyme. After 5 minutes of reaction at 25° C., absorbance was measured at 412 nm. The inhibition of acetylcholinesterase activity was calculated by the following equation. Measurement was made 3 times. Inhibition of acetylcholinesterase activity (%)=[…]
ODb: absorbance of untreated reaction solution at 412 nm;
ODs: absorbance of treated reaction solution at 412 nm; and
ODc: absorbance of control at 412 nm.

[5] = brain cortex, scopolamine 1 mg/kg + 4-O-methylhonokiol 0.5 mg/kg
[6] = brain cortex, scopolamine 1 mg/kg + 4-O-methylhonokiol 1 mg/kg
[7] = brain cortex, scopolamine 1 mg/kg + 4-O-methylhonokiol 1.5 mg/kg
[8] = hippocampus, scopolamine 1 mg/kg + 4-O-methylhonokiol 0.5 mg/kg
[9] = hippocampus, scopolamine 1 mg/kg + 4-O-methylhonokiol 1 mg/kg
[10] = hippocampus, scopolamine 1 mg/kg + 4-O-methylhonokiol 1.5 mg/kg
[11] = scopolamine 1 mg/kg + 4-O-methylhonokiol 0.5 mg/kg
[12] = scopolamine 1 mg/kg + 4-O-methylhonokiol 1 mg/kg
[13] = scopolamine 1 mg/kg + 4-O-methylhonokiol 1.5 mg/kg

acetylcholinesterase, sequence (P22303 32-614, species assumed): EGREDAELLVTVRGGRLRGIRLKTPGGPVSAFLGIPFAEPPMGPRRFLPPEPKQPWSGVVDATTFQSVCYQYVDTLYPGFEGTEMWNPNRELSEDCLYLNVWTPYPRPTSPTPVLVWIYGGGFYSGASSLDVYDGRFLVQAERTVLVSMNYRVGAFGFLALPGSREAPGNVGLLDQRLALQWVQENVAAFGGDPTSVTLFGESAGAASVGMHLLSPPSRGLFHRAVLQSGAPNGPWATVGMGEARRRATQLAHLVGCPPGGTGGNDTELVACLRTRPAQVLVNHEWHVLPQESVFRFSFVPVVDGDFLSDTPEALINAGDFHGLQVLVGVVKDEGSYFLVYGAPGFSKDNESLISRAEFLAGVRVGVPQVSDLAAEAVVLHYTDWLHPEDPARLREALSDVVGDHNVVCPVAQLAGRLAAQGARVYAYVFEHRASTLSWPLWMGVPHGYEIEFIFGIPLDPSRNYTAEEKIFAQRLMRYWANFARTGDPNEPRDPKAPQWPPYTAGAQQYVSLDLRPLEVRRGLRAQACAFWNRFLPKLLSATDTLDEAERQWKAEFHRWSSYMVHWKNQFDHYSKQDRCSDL

Question: Which Step-through latency ([1]; comparison group, scopolamine 1 mg/kg only (control group 34.3)) does the source give for CN1[C@@H]2C[C@@H](OC(=O)[C@H](CO)c3ccccc3)C[C@H]1[C@@H]1O[C@@H]12 [scopolamine, Scopolamine, reference compound] here?
Answer: 14.6 s

Question: And the Escape distance ([2]; comparison group, scopolamine 1 mg/kg only (control group 232))?
Answer: 884 cm

Question: For β-amyloid [reference compound], which Production amount (Amyloid-β 1-42; amyloid-β 1-42, brain cortex, comparison group, β-amyloid 1 mg/kg only (control group 23.5)) is on record?
Answer: 28.1

Question: And the Production amount (Amyloid-β 1-42; amyloid-β 1-42, hippocampus, comparison group, β-amyloid 1 mg/kg only (control group 16.2))?
Answer: 25.1

Question: How did the Enzyme activity (Acetylcholinesterase [3]; [5]) turn out when C=CCc1ccc(O)c(-c2ccc(OC)c(CC=C)c2)c1 [4-O-methylhonokiol] was run?
Answer: 30.2

Question: What about the Enzyme activity (Acetylcholinesterase [3]; [6]) of the same compound?
Answer: 24.1

Question: What about the Enzyme activity (Acetylcholinesterase [3]; [7]) of the same compound?
Answer: 19.1

Question: And the Improvement (Acetylcholinesterase [3]; [5])?
Answer: 42.8%

Question: What about the Improvement (Acetylcholinesterase [3]; [6]) of the same compound?
Answer: 70.3%

Question: And the Improvement (Acetylcholinesterase [3]; [7])?
Answer: 92.8%

Question: What about the Improvement (Acetylcholinesterase [3]; [8]) of the same compound?
Answer: 72.7%

Question: And the Improvement (Acetylcholinesterase [3]; [9])?
Answer: 93.2%

Question: What about the Improvement (Acetylcholinesterase [3]; [10]) of the same compound?
Answer: 97.7%

Question: What about the Enzyme activity (Acetylcholinesterase [3]; [8]) of the same compound?
Answer: 14.1

Question: What about the Enzyme activity (Acetylcholinesterase [3]; [9]) of the same compound?
Answer: 13.2

Question: What about the Enzyme activity (Acetylcholinesterase [3]; [10]) of the same compound?
Answer: 13

Question: And the Step-through latency ([1]; scopolamine 1 mg/kg + 4-O-methylhonokiol 0.5 mg/kg, 24 hours after acquisition trials)?
Answer: 21.9 s

Question: What about the Step-through latency ([1]; scopolamine 1 mg/kg + 4-O-methylhonokiol 1 mg/kg, 24 hours after acquisition trials) of the same compound?
Answer: 28.3 s

Question: And the Step-through latency ([1]; scopolamine 1 mg/kg + 4-O-methylhonokiol 1.5 mg/kg, 24 hours after acquisition trials)?
Answer: 33.5 s

Question: And the Improvement [1, 11]?
Answer: 37.1%

Question: And the Improvement [1, 12]?
Answer: 70%

Question: What about the Improvement [1, 13] of the same compound?
Answer: 95%

Question: And the IC50 (acetylcholinesterase [4])?
Answer: 1.2 nM

Question: What about the inhibition at 0.001 µM (acetylcholinesterase [4]; concentration 1 nM) of the same compound?
Answer: 47%

Question: What about the inhibition at 0.01 µM (acetylcholinesterase [4]) of the same compound?
Answer: 68%

Question: What about the inhibition at 0.1 µM (acetylcholinesterase [4]) of the same compound?
Answer: 78%

Question: And the “times better inhibition ability of acetylcholinesterase activity than honokiol” value (acetylcholinesterase [4]; ratio of IC50 values)?
Answer: about 200 times

Question: And the Improvement [2, 11]?
Answer: 48.8%

Question: What about the Improvement [2, 12] of the same compound?
Answer: 88.6%

Question: And the Improvement [2, 13]?
Answer: 91.8%

Question: And the Escape distance ([2]; scopolamine 1 mg/kg + 4-O-methylhonokiol 0.5 mg/kg oral in drinking water for a week, mice)?
Answer: 566 cm

Question: And the Escape distance ([2]; scopolamine 1 mg/kg + 4-O-methylhonokiol 1 mg/kg oral in drinking water for a week, mice)?
Answer: 305 cm

Question: And the Escape distance ([2]; scopolamine 1 mg/kg + 4-O-methylhonokiol 1.5 mg/kg oral in drinking water for a week, mice)?
Answer: 284 cm

Question: And the Production amount (Amyloid-β 1-42; amyloid-β 1-42, brain cortex, β-amyloid 1 mg/kg + 4-O-methylhonokiol 0.5 mg/kg)?
Answer: 26.8

Question: And the Production amount (Amyloid-β 1-42; amyloid-β 1-42, brain cortex, β-amyloid 1 mg/kg + 4-O-methylhonokiol 1 mg/kg)?
Answer: 24.3

Question: What about the Production amount (Amyloid-β 1-42; amyloid-β 1-42, brain cortex, β-amyloid 1 mg/kg + 4-O-methylhonokiol 1.5 mg/kg) of the same compound?
Answer: 23.1

Question: And the Production amount (Amyloid-β 1-42; amyloid-β 1-42, hippocampus, β-amyloid 1 mg/kg + 4-O-methylhonokiol 0.5 mg/kg)?
Answer: 22.7

Question: And the Production amount (Amyloid-β 1-42; amyloid-β 1-42, hippocampus, β-amyloid 1 mg/kg + 4-O-methylhonokiol 1 mg/kg)?
Answer: 18.2

Question: What about the Production amount (Amyloid-β 1-42; amyloid-β 1-42, hippocampus, β-amyloid 1 mg/kg + 4-O-methylhonokiol 1.5 mg/kg) of the same compound?
Answer: 16.5

Question: What about the Improvement (Amyloid-β 1-42; brain cortex, β-amyloid 1 mg/kg + 4-O-methylhonokiol 0.5 mg/kg) of the same compound?
Answer: 28.3%

Question: And the Improvement (Amyloid-β 1-42; brain cortex, β-amyloid 1 mg/kg + 4-O-methylhonokiol 1 mg/kg)?
Answer: 82.6%

Question: What about the Improvement (Amyloid-β 1-42; brain cortex, β-amyloid 1 mg/kg + 4-O-methylhonokiol 1.5 mg/kg) of the same compound?
Answer: 100%

Question: And the Improvement (Amyloid-β 1-42; hippocampus, β-amyloid 1 mg/kg + 4-O-methylhonokiol 0.5 mg/kg)?
Answer: 33.3%

Question: And the Improvement (Amyloid-β 1-42; hippocampus, β-amyloid 1 mg/kg + 4-O-methylhonokiol 1 mg/kg)?
Answer: 77.8%

Question: And the Improvement (Amyloid-β 1-42; hippocampus, β-amyloid 1 mg/kg + 4-O-methylhonokiol 1.5 mg/kg)?
Answer: 95.6%

Question: What does the source list for C=CCc1ccc(O)c(-c2ccc(O)c(CC=C)c2)c1 [Honokiol]?
Answer: IC50 (acetylcholinesterase [4]): 250 nM; inhibition at 0.01 µM (acetylcholinesterase [4]): 17%; inhibition at 0.1 µM (acetylcholinesterase [4]): 43%; inhibition at 1 µM (acetylcholinesterase [4]; concentration 1000 nM): 74%
